Experiments:
Glucocorticoid receptor = target: T1, Glucocorticoid receptor (Homo sapiens, UniProt P04150)
T1 sequence (P04150 whole entry): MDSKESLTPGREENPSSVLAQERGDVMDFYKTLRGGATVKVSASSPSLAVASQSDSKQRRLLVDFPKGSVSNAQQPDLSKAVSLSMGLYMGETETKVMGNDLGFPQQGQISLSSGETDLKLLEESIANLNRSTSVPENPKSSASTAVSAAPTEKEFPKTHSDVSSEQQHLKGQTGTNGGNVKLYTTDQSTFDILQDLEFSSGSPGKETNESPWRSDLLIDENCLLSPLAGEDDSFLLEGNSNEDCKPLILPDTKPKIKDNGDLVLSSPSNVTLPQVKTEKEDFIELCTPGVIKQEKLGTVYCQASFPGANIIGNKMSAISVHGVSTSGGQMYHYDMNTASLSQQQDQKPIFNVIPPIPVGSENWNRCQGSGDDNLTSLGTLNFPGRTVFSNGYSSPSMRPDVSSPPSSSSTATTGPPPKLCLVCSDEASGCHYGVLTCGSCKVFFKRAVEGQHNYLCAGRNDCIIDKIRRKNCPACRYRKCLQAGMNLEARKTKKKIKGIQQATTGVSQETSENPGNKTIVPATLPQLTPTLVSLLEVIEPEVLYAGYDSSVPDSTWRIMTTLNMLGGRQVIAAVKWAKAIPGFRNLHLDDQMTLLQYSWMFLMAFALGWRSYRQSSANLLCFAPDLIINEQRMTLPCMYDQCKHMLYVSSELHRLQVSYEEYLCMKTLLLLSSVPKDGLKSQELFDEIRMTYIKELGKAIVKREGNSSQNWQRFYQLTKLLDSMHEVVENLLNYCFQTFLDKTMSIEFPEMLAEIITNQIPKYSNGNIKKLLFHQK

[1] = target: T2, Gastrin/cholecystokinin type B receptor (Homo sapiens, UniProt P32239)
T2 sequence (P32239 whole entry): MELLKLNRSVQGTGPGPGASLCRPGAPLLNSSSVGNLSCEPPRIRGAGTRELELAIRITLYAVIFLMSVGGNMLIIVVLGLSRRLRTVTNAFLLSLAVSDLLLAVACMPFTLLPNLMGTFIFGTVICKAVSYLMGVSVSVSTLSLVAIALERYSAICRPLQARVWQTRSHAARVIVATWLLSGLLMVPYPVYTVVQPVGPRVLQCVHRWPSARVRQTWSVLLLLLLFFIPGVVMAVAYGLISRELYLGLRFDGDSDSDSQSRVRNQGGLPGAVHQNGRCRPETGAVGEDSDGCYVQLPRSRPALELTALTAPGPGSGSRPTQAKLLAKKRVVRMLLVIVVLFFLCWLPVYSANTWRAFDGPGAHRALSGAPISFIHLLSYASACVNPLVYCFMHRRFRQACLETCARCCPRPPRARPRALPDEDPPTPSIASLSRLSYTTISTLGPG

Adenosine receptor A2a = Adenosine receptor A2a (Homo sapiens, UniProt P29274)
Chain of Adenosine receptor A2a (P29274 whole entry): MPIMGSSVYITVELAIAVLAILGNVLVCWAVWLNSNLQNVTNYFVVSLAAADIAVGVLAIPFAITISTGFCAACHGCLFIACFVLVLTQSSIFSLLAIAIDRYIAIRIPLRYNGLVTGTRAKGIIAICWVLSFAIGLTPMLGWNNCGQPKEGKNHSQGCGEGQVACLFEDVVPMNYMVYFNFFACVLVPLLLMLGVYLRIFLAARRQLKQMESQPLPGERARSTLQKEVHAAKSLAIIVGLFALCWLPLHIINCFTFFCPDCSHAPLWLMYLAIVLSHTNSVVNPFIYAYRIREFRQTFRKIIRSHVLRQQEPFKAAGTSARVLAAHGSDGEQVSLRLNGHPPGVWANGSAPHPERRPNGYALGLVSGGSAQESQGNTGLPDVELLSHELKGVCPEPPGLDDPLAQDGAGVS

[2] = target: Beta-2 adrenergic receptor (Homo sapiens, UniProt P07550); type: functional, cell-based
Chain of Beta-2 adrenergic receptor (P07550 whole entry): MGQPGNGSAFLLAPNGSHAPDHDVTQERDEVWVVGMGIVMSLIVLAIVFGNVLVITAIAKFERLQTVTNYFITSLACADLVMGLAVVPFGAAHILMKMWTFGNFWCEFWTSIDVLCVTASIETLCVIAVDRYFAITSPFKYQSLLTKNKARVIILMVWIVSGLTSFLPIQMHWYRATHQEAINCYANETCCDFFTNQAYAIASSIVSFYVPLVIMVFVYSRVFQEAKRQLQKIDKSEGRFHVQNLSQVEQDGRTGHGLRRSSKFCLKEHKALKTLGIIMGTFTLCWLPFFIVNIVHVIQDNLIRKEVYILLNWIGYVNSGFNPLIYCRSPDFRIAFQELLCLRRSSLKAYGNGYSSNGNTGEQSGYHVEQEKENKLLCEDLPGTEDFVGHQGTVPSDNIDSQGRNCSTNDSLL

Melanocortin receptor 3 = Melanocortin receptor 3 (Homo sapiens, UniProt P41968)
Chain of Melanocortin receptor 3 (P41968 whole entry): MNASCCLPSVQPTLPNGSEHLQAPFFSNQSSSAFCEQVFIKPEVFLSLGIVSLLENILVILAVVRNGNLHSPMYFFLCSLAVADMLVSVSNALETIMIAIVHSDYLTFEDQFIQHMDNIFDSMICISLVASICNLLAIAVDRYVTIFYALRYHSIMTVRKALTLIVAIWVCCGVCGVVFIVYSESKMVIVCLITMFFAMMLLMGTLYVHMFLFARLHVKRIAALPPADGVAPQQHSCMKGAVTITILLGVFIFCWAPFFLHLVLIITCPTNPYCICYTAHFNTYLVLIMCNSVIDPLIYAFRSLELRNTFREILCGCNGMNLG

Adenosine receptor A3 = target: T3, Adenosine receptor A3 (Homo sapiens, UniProt P0DMS8)
T3 sequence (P0DMS8 whole entry): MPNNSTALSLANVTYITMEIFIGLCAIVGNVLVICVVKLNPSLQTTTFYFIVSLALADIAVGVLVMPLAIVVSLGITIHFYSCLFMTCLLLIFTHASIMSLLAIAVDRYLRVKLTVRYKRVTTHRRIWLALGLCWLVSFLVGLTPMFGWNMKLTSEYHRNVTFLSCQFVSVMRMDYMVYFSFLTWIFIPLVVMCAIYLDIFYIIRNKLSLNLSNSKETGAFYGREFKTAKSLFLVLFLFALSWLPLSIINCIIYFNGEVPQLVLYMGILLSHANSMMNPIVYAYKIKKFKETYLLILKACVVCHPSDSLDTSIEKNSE

[3] = target: T4, 5-hydroxytryptamine receptor 2C (Homo sapiens, UniProt P28335)
T4 sequence (P28335 whole entry): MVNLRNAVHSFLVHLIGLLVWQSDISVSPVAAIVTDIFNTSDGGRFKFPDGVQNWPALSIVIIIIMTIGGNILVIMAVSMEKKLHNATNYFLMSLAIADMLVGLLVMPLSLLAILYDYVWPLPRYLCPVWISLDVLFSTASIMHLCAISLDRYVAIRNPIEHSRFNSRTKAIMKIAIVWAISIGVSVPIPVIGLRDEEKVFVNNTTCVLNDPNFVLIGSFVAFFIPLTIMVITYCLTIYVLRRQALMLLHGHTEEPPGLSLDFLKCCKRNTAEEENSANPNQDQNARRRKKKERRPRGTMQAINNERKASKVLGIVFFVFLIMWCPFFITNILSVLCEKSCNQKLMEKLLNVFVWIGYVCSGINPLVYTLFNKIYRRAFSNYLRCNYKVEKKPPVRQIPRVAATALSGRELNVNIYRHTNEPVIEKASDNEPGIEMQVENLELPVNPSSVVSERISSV

[4] = target: T5, Amine oxidase [flavin-containing] A (Homo sapiens, UniProt P21397); type: functional
T5 sequence (P21397 whole entry): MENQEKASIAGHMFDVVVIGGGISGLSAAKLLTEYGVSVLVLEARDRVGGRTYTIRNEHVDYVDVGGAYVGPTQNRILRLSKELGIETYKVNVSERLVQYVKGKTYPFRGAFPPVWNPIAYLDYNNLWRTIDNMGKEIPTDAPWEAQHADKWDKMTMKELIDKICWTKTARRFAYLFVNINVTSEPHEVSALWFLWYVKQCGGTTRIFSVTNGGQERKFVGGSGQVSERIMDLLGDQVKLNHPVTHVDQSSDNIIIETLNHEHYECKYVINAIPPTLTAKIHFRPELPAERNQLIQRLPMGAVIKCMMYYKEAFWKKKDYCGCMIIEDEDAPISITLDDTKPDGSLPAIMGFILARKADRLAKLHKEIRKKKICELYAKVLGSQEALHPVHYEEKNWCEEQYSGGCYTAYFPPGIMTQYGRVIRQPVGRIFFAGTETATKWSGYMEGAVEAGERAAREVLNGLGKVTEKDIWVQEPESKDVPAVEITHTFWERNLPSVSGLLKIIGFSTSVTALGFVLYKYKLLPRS

[5] = target: Sodium-dependent dopamine transporter (Homo sapiens, UniProt Q01959)
Chain of Sodium-dependent dopamine transporter (Q01959 whole entry): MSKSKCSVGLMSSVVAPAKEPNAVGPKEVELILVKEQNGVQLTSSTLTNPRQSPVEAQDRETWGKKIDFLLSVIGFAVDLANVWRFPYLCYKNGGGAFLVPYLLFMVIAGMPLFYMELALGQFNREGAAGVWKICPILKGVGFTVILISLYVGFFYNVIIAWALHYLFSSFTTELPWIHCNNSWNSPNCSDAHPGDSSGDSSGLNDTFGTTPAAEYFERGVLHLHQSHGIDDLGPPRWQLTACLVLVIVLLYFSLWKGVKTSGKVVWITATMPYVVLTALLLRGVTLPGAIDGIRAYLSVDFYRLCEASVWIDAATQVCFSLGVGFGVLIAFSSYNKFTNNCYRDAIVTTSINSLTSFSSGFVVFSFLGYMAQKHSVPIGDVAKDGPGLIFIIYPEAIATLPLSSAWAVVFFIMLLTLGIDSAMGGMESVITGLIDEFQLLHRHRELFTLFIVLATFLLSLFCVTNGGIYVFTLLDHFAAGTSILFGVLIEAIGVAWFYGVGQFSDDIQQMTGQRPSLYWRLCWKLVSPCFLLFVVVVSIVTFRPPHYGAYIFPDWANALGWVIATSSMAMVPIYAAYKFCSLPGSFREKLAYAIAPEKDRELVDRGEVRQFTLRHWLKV

Cannabinoid receptor 1 = Cannabinoid receptor 1 (Homo sapiens, UniProt P21554); type: functional, cell-based
Chain of Cannabinoid receptor 1 (P21554 whole entry): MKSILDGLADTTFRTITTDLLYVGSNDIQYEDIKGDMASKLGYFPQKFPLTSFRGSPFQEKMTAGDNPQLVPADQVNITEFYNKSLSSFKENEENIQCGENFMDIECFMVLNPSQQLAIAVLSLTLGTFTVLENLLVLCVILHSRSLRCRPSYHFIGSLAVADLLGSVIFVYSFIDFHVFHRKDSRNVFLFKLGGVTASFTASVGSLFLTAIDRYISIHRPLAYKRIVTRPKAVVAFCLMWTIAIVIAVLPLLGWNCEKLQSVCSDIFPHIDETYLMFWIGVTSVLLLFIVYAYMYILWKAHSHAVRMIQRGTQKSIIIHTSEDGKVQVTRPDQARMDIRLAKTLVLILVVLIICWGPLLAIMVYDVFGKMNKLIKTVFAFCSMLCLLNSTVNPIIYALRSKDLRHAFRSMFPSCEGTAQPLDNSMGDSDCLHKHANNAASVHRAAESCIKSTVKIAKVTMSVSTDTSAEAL
Note: assay procedure not described here.

Compound	AC50 (Glucocorticoid receptor) [µM]	AC50 [1] [µM]	AC50 (Adenosine receptor A2a) [µM]	AC50 [2] [µM]	AC50 (Melanocortin receptor 3) [µM]	AC50 (Adenosine receptor A3) [µM]	AC50 [3] [µM]	AC50 [4] [µM]	AC50 [5] [µM]	AC50 (Cannabinoid receptor 1) [µM]
COc1ccc(C(=O)Nc2ccccc2CCC2CCCCN2C)cc1 (centres undefined) [ENCAINIDE]	> 30	> 30	> 30	> 30	> 30	> 30	0.81	> 10	> 10	> 30
CCOc1ccc(Cc2cc([C@@H]3O[C@H](CO)[C@@H](O)[C@H](O)[C@H]3O)ccc2Cl)cc1 [DAPAGLIFLOZIN]	> 30	> 30	> 30		> 30	> 30	> 30	> 10	> 30	
COc1ccccc1N1CCN(CC(O)COc2cccc3ccccc23)CC1 (centres undefined) [NAFTOPIDIL]	8.9		> 30	> 30	> 30	> 30	> 30	> 30	5.5	> 30
Cc1oc(=O)oc1CN1CCN(c2cc3c(cc2F)c(=O)c(C(=O)O)c2n3C(C)S2)CC1 (centres undefined) [PRULIFLOXACIN]				> 30			> 30	> 30		> 30
CCCC1O[C@@H]2C[C@H]3[C@@H]4CCC5=CC(=O)C=C[C@]5(C)[C@H]4[C@@H](O)C[C@]3(C)[C@]2(C(=O)CO)O1 (some centres undefined) [BUDESONIDE]			> 10		> 10	> 10	> 30	> 10	> 10	
CN1CCN(C2=Nc3ccccc3Sc3ccc(Cl)cc32)CC1 [CLOTHIAPINE]				> 30			0.8	> 30		
CN(C)CCc1c[nH]c2ccc(C[C@H]3COC(=O)N3)cc12 [ZOLMITRIPTAN]	> 30	> 30	> 30	> 30	> 30	> 30	> 30	> 30	> 30	
O=[N+]([O-])O[C@@H]1CO[C@H]2[C@@H]1OC[C@@H]2O [ISOSORBIDE MONONITRATE]	> 30	> 30	> 30		> 30	> 30	> 30	> 10	> 10	
CC[C@H]1CN2CCc3cc(OC)c(OC)cc3[C@@H]2C[C@@H]1C[C@H]1NCCc2cc(OC)c(OC)cc21 [EMETINE]	> 30	> 30	> 30	> 30	> 30	> 30	> 30	> 30	> 30	> 30
C=CCN1C[C@H](C(=O)N(CCCN(C)C)C(=O)NCC)C[C@@H]2c3cccc4[nH]cc(c34)C[C@H]21 [CABERGOLINE]	> 10		> 10	> 30	> 10	> 10	> 30	> 10	5.4	> 30
CCC(CC)(CC(=O)Nc1cccc(/C=C/c2nc(C3CCC3)cs2)c1)C(=O)O		> 30	> 30		> 30	13.9			> 30	
CN(C)CCC=C1c2ccccc2C=Cc2ccccc21 [CYCLOBENZAPRINE]	> 30	> 30	> 30	> 30	> 30	> 30	0.88	> 10	> 30	> 30
CN(C)CC/C=C1\c2ccccc2CSc2ccccc21 [DOTHIEPIN]	> 30	> 30	> 30	> 30	25	> 30	1.6		20	> 30
CC[C@@H](C(N)=O)N1CCCC1=O		> 30	> 30	> 30	> 30	> 30	> 30	> 30	> 30	> 30
Cc1cc(C)c(NC(=O)CN(CC(=O)O)CC(=O)O)c(C)c1Br [MEBROFENIN]				> 30			> 30	> 30		> 30
COC1=C(OC)C(=O)C(C/C=C(\C)CC/C=C(\C)CC/C=C(\C)CC/C=C(\C)CC/C=C(\C)CC/C=C(\C)CC/C=C(\C)CC/C=C(\C)CC/C=C(\C)CCC=C(C)C)=C(C)C1=O [UBIDECARENONE]				> 30			> 30	> 30		> 30
CCCCCNC(=N)N/N=C/c1c[nH]c2ccc(OC)cc12 [TEGASEROD]	> 30	> 30	> 30		11.5	15.3	0.543	> 30	6.78	
CCOc1ccccc1OCC1CNCCO1 (centres undefined) [VILOXAZINE]	> 30	> 30	> 30	> 30	> 30	> 30		> 10	> 10	> 30
O=[N+]([O-])c1cn2c(n1)OC[C@@H](OCc1ccc(OC(F)(F)F)cc1)C2 [PRETOMANID]		> 30	> 30		> 30	> 30	> 10		> 10	
COc1cc2nc(N3CCN(C(=O)c4ccco4)CC3)nc(N)c2cc1OC [PRAZOSIN]	> 30	> 30	> 30		> 30	> 30	> 30	> 10	> 10	> 30

From ChEMBL document CHEMBL5291721, “A preclinical secondary pharmacology resource illuminates target-adverse drug reaction associations of marketed drugs” (Nat Commun, 2023)
